According to US4318925A (priority 1977, dated 1982):
Structures can show the parent of a compound that is named as a salt. Where two headings read alike, the source gives them in different places.

Columns and labels:
in vitro = settings: human, kb cells
influenza viruses = settings: British Pat. No. 1,063,366; SCIENCE, Vol. 144, 862, (1964); cited from earlier work
Influenza AoPR/8 = format: in vivo, ddY male mice; settings: subcutaneous, from 3 hours pre to 150 hours post infection, LLS 7 days after infection, Control (0 mg/kg) 4.8
Newcastle diseases virus = settings: Koji Aigami et al., J. of Medicinal Chemistry, Vol. 19, 536 (1976); cited from earlier work

Row | Structure (SMILES) | MCC at 72 h (in vitro) [µg/mL] | Lung Lesion Score (Influenza AoPR/8; 15 mg/kg) | other results
1 | CCOCC(=O)NC12CCCC3CC(CCC31)C2 (centres unmarked) [N-[3-(4-homoisotwistyl)]-2-ethoxyacetamide] | 25 |  | 
2 | NC12CC3CC(CC(C3)C1)C2 [1-adamantanamine] |  |  | antiviral activity against influenza viruses (influenza viruses): show antiviral against influenza viruses
3 | O=C(COc1ccccc1)NC12CCCC3CC(CCC31)C2 (centres unmarked) [N-[3-(4-homoisotwistyl)]-2-phenoxyacetamide] |  | 4.35 | 
4 | CN(C)CCOCC(=O)N(C)C12CCCC3CC(CCC31)C2 (centres unmarked) [N-methyl, N-[3-(4-homoisotwistyl)]-2-(2-dimethylaminoethoxy) acetamide hydrochloride] |  | 4.50 | 
5 | CN(C)CCOCC(=O)NC12CCCC3CC(CCC31)C2 (centres unmarked) [N-[3-(4-homoisotwistyl)]-2-(2-dimethylaminoethoxy)-acetamide hydrochloride] | 250 | 4.33 | 
6 | NC12CCCC3CC(CCC31)C2 (centres unmarked) [3-amino-4-homoisotwistane hydrochloride] |  |  | antiviral activity against Newcastle diseases virus (Newcastle diseases virus): have antiviral activity against Newcastle diseases virus
7 | CCCCCOCC(=O)NC12CCCC3CC(CCC31)C2 (centres unmarked) [N-[3-(4-homoisotwistyl)]-2-pentyloxyacetamide] | 5 |  | 
8 | NC12CC3CC(CC(C3)C1)C2 [Amantadine hydrochloride, reference compound] | > 50 |  | Lung Lesion Score (Influenza AoPR/8; 10 mg/kg): 4.3
9 | CCCCCCCCCCCOCC(=O)NC12CCCC3CC(CCC31)C2 (centres unmarked) [N-[3-(4-homoisotwistyl)]-2-undecyloxyacetamide] | 10 |  | 
